Source: patent US20100040568A1, “Steroidal compounds as melanogenesis modifiers and uses thereof” (SkinMedica, Inc., priority 2008, published 2010)
pIC50: −log10 of the molar value.

Key:
[1] = system: MEL-A; assay: MTT cell viability of treated MelanoDerm tissue; format: cell-based, human; conditions: 0.036% topical
Method: Conessine and Licorice extract were dissolved in 30% ethanol: 70% propylene glycol (PEG) to a final concentration of 0.036% (0.36 mg/ml). A 25 μl aliquot of each compound was applied topically to the Asian MelanoDerm™ tissue (MEL-A) on Days 0, 1, 3, 6, 8, 10 and 13. The MelanoDerm™ tissues were fed every other day with 5 ml fresh NMM-113. Prior to each application, the tissues were washed with 1 ml PBS to remove any residual test compound. Tissues were fixed on Days 13 and 16 for microscopic analysis and histological evaluation. In addition, duplicate tissues were frozen on Days 13 and 16 for melanin assay. 30% ethanol: 70% PEG was used as negative control. Cell viability was measured in accordance with the manufacturer's instructions using the MTT assay kit (MatTek Corp., Ashland, Mass. 01721). One MEL-A tissue from each condition was harvested on day 2 and 7, and MTT assay was performed.

[2] = system: Microphthalmia transcription factor (MITF); assay: Level of microphthalmia transcription factor in melan-a cells; format: cell-based, murine
Method: Melan-a cells were incubated with various concentrations of conessine for 72 hours. Cell lysates were prepared and separated by 7.5% sodium dodecyl sulfate-polyacrylamide gel and transferred to Immobilon-P membranes. Tyrosinase gene family proteins were detected with antibodies against each protein. […] Microphthalmia transcription factor (MITF) is a transcription factor that regulates the expression of tyrosinase gene family. […] Thus, increased levels of tyrosinase gene family proteins with conessine treatment are not due to increased MITF expression in melan-a cells.

[3] = system: melan-a cells; assay: CellTiter 96 aqueous nonradioactive cell proliferation assay (cell viability); format: cell-based, murine; conditions: concentrations below 20 μM
Method: The IC50 value for inhibition of cellular melanin synthesis for conessine was determined by culturing melan-a cells with various concentrations of conessine for 72 hours. Briefly, melan-a cells were plated at 5×10^4 cells per well in 1 ml of culture media in 24-well plates the day before adding conessine. Conessine was added at the indicated final concentrations. DMSO was used as a negative control. Cells were harvested after 72 hours of incubation, and spectrophotometric melanin assay was performed on cell pellets. The melanin contents were normalized to the total amount of protein. Cell viability was determined by using the CellTiter 96 aqueous nonradioactive cell proliferation assay.

[4] = system: melan-a cells; assay: Melanin assay in cultured murine melanocytes (melan-a); format: cell-based; conditions: 72 hours
Method: The Spectrum Collection library consisting of 2000 drug compounds or natural products was screened to identify novel pigmentation inhibitors or stimulators in cultured murine melanocytes (melan-a). Compounds were dissolved in dimethylsulfoxide (DMSO) to a final concentration of 10 mM. Screening was performed with cultured melanocytes in 24-well plates followed by melanin assay (see below). A minimum change of 50% in melanin formation was established as significant for a pigmentation inhibitor or stimulator. DMSO was used as a negative control and the widely used depigmenting agent, hydroquinone, was used as a positive control on every plate. […] Melan-a cells were plated at 5×10^4 cells per well in 1 ml of culture media in 24-well plates the day before adding the library compounds. All compounds were added at the indicated final concentrations. Cells were harvested after 72 hours of incubation, and melanin assay was performed. For the primary and secondary screening, cells were harvested and dissolved in 200 μl of 2N NaOH in 20% DMSO at 70° C. A 180-μl aliquot of the resulting solution was measured for absorbance at 490 nm. Cells are harvested in extraction buffer (1% Triton X-100, 50 mM Tris, 2 mM EDTA, 150 mM NaCl, pH 7.5) containing a complete protease inhibitor cocktail (Roche). The lysates were centrifuged at 14,000 rpm for 10 minutes at 4° C. BCA protein assay kit (Pierce) was used to measure the protein concentrations of the supernatants, and bovine serum albumin was used as a standard. […] A 180-μl aliquot of the resulting solution was measured for absorbance at 490 nm. The melanin contents were normalized to the total amount of protein. The IC50 value for inhibition of cellular melanin synthesis for conessine was determined by culturing melan-a cells with various concentrations of conessine for 72 hours. Briefly, melan-a cells were plated at 5×10^4 cells per well in 1 ml of culture media in 24-well plates the day before adding conessine. Conessine was added at the indicated final concentrations. DMSO was used as a negative control. Cells were harvested after 72 hours of incubation, and spectrophotometric melanin assay was performed on cell pellets. The melanin contents were normalized to the total amount of protein. Cell viability was determined by using the CellTiter 96 aqueous nonradioactive cell proliferation assay. […] Licorice extract was tested under similar conditions as conessine for its ability to decrease melanin synthesis in melan-a cells (FIG. 11c). Melan-a cells were plated at 5×10^4 cells per well in 1 ml of culture media in 24-well plates the day before adding Licorice extract. 70% ethanol was used as control and the Licorice extract was diluted in cell culture media at the indicated concentrations. […] Cells were harvested after 72 hours of incubation, and spectrophotometric melanin assay was performed on cell pellets. The melanin contents were normalized to the total amount of protein. Cell viability was determined by using the CellTiter 96 aqueous nonradioactive cell proliferation assay.

CC1C2CCC3C4CC=C5CC(N(C)C)CCC5(C)C4CCC32CN1C (stereo not shown) [Compound 1, Conessine] was tested, and the “cytotoxicity of treated tissue” value [1] was “no detectable cytotoxicity”, the “level of MITF” value [2] was “no notable effect” and the cytotoxicity [3] was “did not exhibit cytotoxicity”. The “effect on melanin synthesis in melan-a cells” value ([4]; indicated concentrations) was “significantly inhibited melanogenesis in a dose-dependent manner”, the pIC50 ([4]; Mus musculus, melan-a cells, melanin normalized to protein, read-out: IC50 value for inhibition of cellular melanin synthesis) was ~5.60 and the “% of control remaining @ 1 μM” value ([4]; melanin, melan-a cells, 1 μM) was 73.3 % of control. The “% of control remaining @ 5 μM” value ([4]; melanin, melan-a cells, 5 μM) was 32.2 % of control.
